# Data published in patent US7250157B2, “Dermatological compositions and methods” (Applied Genetics Incorporated Dermatics, priority 1996, dated 2007).
# Values joined by “and” are separate entries in the source; they are usually repeats but may differ in a detail not shown here. Equal values may be shown once.
# Columns and labels:
# [1] = system: Cloudman S91 mouse melanoma cell line; test: Cell count (proliferation, toxicity) of treated S91 cells; type: cell-based
# Experimental: The Cloudman S91 mouse melanoma cell line was obtained from American Type Culture Collection (ATCC). Cells were cultured in Dulbecco's Modified Eagles Medium (DMEM) containing 10% calf serum, 2 mM L-glutamine, 10 U Penicillin/ml and 10 ug Streptomycin/ml according to a previously published protocol (Eller, et al., Proc. Natl. Acad. Sci. 93:1087-92. 1996). For testing propylene glycol and analogues for induction of melanogenesis, S91 cells were plated at 10^5 cells/35 mm dish in 10% calf serum. One day after plating, media was removed and replaced with media containing 2% calf serum and test compounds (Eller, et al., 1996). Cells were cultured for 6 days at 37° C. in 5% CO2 in a humidified incubator. Following this treatment period, cells were examined microscopically and the portion of dedifferentiated and differentiated cells was estimated. Previous studies have shown that dedifferentiated S91 cells have a rounded, spindly appearance while differentiated S91 cells have a flattened, cuboidal, multipolar and dendritic appearance (Orlow, et al., Exp. Cell Res. 191:209-218, 1990).
# Following this microscopic examination, cells were detached from dishes by trypsin. The time required for detachment by trypsin was recorded as an additional indicator of the phenotypic effects of test compounds. For each treatment, a subsample of cells was counted to determine the effects of treatment compounds on cellular proliferation. The remainder of cells were used for determination of melanin content. Melanin was extracted from cells by vortexing for 15 min in 1N NaOH. Standards were prepared by dissolving melanin (Sigma) in 1 N NaOH (Eller, et al., 1996). Absorbance of standards and samples was measured at 475 nm. Melanin was expressed as pg melanin/cell.
# [2] = system: Normal human epidermal melanocytes (NHEMs); test: Melanin induction in normal human epidermal melanocytes; type: cell-based
# Experimental: Normal human epidermal melanocytes (NHEMs) were examined for induction of melanogenesis using cells and media from Clonetics Corporation (San Diego, Calif.). Cells were cultured exactly as specified by the supplier.
# [3] = system: American short-haired guinea pigs; test: Topical melanogenesis (pigmentation rating) in guinea pigs; type: in vivo, guinea pig; design: Pigmentation Rating / Pigmentation Rating Background Corrected: scale not given here; conditions: for relative melanogenesis rating (mean ±SE), scale 0-4: 25 μl twice per day for 5 days, rated two weeks after
# Procedure, shortened: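 Agents applied topically to depilated back sites of American short-haired guinea pigs; PG, 2,3-BD and 1,2-cis-CPD at full strength, 3,3-M-1,2-BD at 4M in ethanol. Pigmentation subjectively rated two weeks after cessation of treatment, corrected for control-spot background, normalized to 1M and to 1,2-PG.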
# [4] = system: Tyrosinase in normal human epidermal melanocytes (NHEM); test: Tyrosinase in NHEM (in situ, cellular, extracellular particulate, media); type: cell-based
# Experimental: Tyrosinase was measured in normal human epidermal melanocytes (NHEM) using procedures identical to those described for S91 cells (Example 6), […], 1600×g, or 17,300×g for analysis of tyrosinase activity in the extracellular exported melanosomal particulate fraction, and in the resultant supernatant media fraction. In some cases (Table 11), tyrosinase was also measured by an in situ assay wherein radiolabelled tyrosine was added directly to freshly replaced media of NHEM for a period of 24 hrs following a 5 day treatment period (Abdel-Malek, et al., 1992, J. Cell. Physiol. 150:416-425). […] Both 5 mM 5-NBene-2,2-DM and 25 mM 3,3-M-1,2-BD induced more tyrosinase in each of these assays and fractions than did 1,2-PG. IBMX (3-isobutyl-1-methyl-xanthine) provided as a positive control, induced as much tyrosinase as 5 mM 5-NBene-2,2-DM in the in situ assay, but less in cellular, extracellular particulate and media fractions (Table 11).
# [5] = system: tyrosinase activity in S91 mouse melanoma cells; test: Induction of tyrosinase activity in S91 cells; conditions: 300 mM PG-1,2; 25 mM 3,3-M-1,2-BD; 50 mM 1,2-cs-CPD; 5 mM 5-NBene-2,2-DM; 0.5 mM 2,3-Pyd; 0.1 mM IBMX; mean ±SE
# Experimental: Compounds were examined for their ability to induce tyrosinase activity in S91 mouse melanoma cells. […] Following treatments, cells were trypsinized, counted by Coulter, pelleted by centrifugation at 1000×g, and analyzed for tyrosinase activity using modifications of previously described procedures (Pomerantz, S. H., 1966, J. Biol. Chem. 241:161-168; Jara, et al., 1988, Pigment Cell Res. 1: 332-339.). Briefly, cell pellets were solubilized by sonicating for 5 seconds in 600 ul 50 mM phosphate buffer pH 6.8 containing 0.5% Triton-X100, followed by vortexing, incubation on ice for 30 min, and then revortexing. From this, 200 ul aliquots were combined with 200 ul of reaction mixture containing either 75 uM tyrosine, 75 uM L-Dopa, and 2 uCi L-[3,5-^3H]Tyrosine in 50 mM NaPO4 pH 6.8 (L-Dopa+), or, 75 uM tyrosine, and 2 uCi L-[3,5-^3H]Tyrosine in 50 mM NaPO4 pH 6.8 (L-Dopa−) and incubated 1 hr at 37° C. Reactions were stopped by addition of 400 ul 10% activated charcoal in 0.1N HCl and incubation on ice for 15 min. This mixture was centrifuged at 17,300×g for 5 min, and 400 ul supernatant was then filtered through a 0.22 uM GV Durapore centifugal filter unit (Millipore) by centrifuging at 17,300×g for 5 min. Filtrate was added to 4 ml Fisher Plus scintillation fluid and counted on a Hewlett Packard scintillation counter. Tyrosinase activity was calculated as dpm/hr/ug protein and dpm/hr/10^3 cells. Each sample was analyzed with and without L-Dopa, a necessary cofactor for tyrosinase (Pomerantz, S. H., 1966, J. Biol. Chem. 241:161-168; McLane, et al., 1987, Biochem. Biophys. Res. Commun. 145:719-725). All reported tyrosinase values are exclusive of counts that occurred in buffer blanks and L-dopa negative aliquots. Protein was determined on aliquots of cell lysate, extracellular particulate lysate or media by the Bradford Coomassie Blue method (Bradford, 1967, Anal. Biochem. 72:248-254) using Bio-Rad Protein Assay Kit I.
# [6] = No Penetration Enhancer, concentrations as E85
# [7] = pair of replicates, concentrations as E130
compound,measurement,setting,value
"CC(O)CO (centres unmarked) [1,2-propanediol, 1,2-Propanediol (Propylene Glycol)]",Cells (×10^6),[1]; 50 mM,0.084 ×10^6
same,Cells (×10^6),[1]; 150 mM,0.072 ×10^6
same,Cells (×10^6),"[1]; 1% (136 mM), 6 days",0.52 ×10^6
same,Cells (×10^6),"[1]; 2% (272 mM), 6 days",0.50 ×10^6
same,Cells (×10^6),"[1]; 3% (408 mM), 6 days",0.20 ×10^6
same,Cells (×10^6),"[1]; 4% (544 mM), 6 days",0.10 ×10^6
same,Cells (×10^6),"[1]; 5% (680 mM), 6 days",0.08 ×10^6
same,effect on cell proliferation,[1]; levels used in this experiment (50 and 150 mM),no reduction of cell proliferation
same,Concentration Required for ≧1.5-fold Melanin Induction in NHEMs,[2],150 mM
same,"Pigmentation Rating Normalized to 1,2-PG",[3]; [6],1.0 ± 0.1
same,Pigmentation Rating Normalized to 1M,[3]; [6],0.015 ± 0.002
same,Pigmentation Rating Background Corrected,"[3]; No Penetration Enhancer, corrected for Nair control, concentrations as E85",0.21 ± 0.03
same,Pigmentation Rating,"[3]; No Penetration Enhancer, sites c and d, 13.61M 1,2-PG, 11.0M 2,3-M-2,3-BD, 11.3M 2-M-1,3-PG, 8.7M 1,2-cs-CPD, 4.0M 3,3-M-1,2-BD",0.29 ± 0.09
same,melanogenesis in guinea pigs (in words),[3]; same relative body position,significant melanogenesis relative to depilitory treated controls
same,"relative melanogenesis rating (mean ±SE), scale 0-4","[3]; site a (head), PG 13.6M, 2,3-BD 10.95M, 1,2-cs-CPD 10.7M full strength, 3,3-M-1,2-BD 4M in ethanol",1.04 ± 0.21
same,"relative melanogenesis rating (mean ±SE), scale 0-4","[3]; site b, full strength solutions, listed as PG",0.50 ± 0.25 and 0.83 ± 0.17
same,"relative melanogenesis rating (mean ±SE), scale 0-4","[3]; site c, full strength, 3,3-M-1,2-BD 4M in ethanol",0.25 ± 0.09^1
same,"relative melanogenesis rating (mean ±SE), scale 0-4","[3]; site d (tail), full strength solutions",0.33 ± 0.16^1
same,pigmentation response versus control (Nair or 2% 2P treated) spots,"[3]; sites towards tail, 13.61M 1,2-PG, 10.6M 1,2-PG/2% 2P, 11M 2,3-dimethyl-2,3-butanediol",not significantly different from control
same,Tyrosinase In Situ,"[4]; 5 day treatment, 300 mM 1,2-PG, 25 mM 3,3-M-1,2-BD, 5 mM 5-NBene-2,2-DM, 0.1 mM IBMX",17.2 dpm/hr/10^3 Cells and 16.8 dpm/hr/10^3 Cells
same,Tyrosinase Cellular,"[4]; 5 day treatment, concentrations as E130, listed as 1,2-PG",10875 dpm/hr/10^3 Cells and 10247 dpm/hr/10^3 Cells
same,Tyrosinase Media,"[4]; Post 17300 X g, 5 day treatment, concentrations as E130, listed as 1,2-PG",2123 dpm/hr/10^3 Cells and 1864 dpm/hr/10^3 Cells
same,"Tyrosinase 200 g Partic, relative to controls (in parentheses)",[4]; [7],(1.98X)
same,"Tyrosinase 17300 g Partic, relative to controls (in parentheses)",[4]; [7],(1.50X)
same,"Tyrosinase Cellular, relative to controls (in parentheses)",[4]; [7],(1.03) X
same,"Tyrosinase In Situ, relative to controls (in parentheses)",[4]; [7],(1.07X)
same,"Tyrosinase Media, relative to controls (in parentheses)",[4]; [7],(1.28X)
same,Tyrosinase dpm/hr 10^3 Cells,[5],292 ± 104 dpm/hr/10^3 Cells
same,Tyrosinase dpm/hr ug Protein,[5],1003 ± 370 dpm/hr/ug Protein
